Results reported in US9334263B2, “Compositions useful for treating disorders related to kit” (BLUEPRINT MEDICINES CORPORATION, priority 2013, dated 2016).

What was measured:
[1] = target: T1, PDGFRA D842V (Homo sapiens, UniProt P16234, D842V); assay: PDGFRA D842V assay at Km (Caliper electrophoretic mobility shift); format: biochemical; settings: 15 uM ATP, 25 C, 90 minutes; read-out: PDFGRA D842V
T1 construct: purchased ProQinase 0761-0000-1
Protocol: (§1) In order to assess the activity of chemical compounds against the relevant kinase of interest, the Caliper LifeSciences electrophoretic mobility shift technology platform is used. Fluorescently labeled substrate peptide is incubated in the presence of kinase and ATP so that a […] proportion of the peptide is phosphorylated. At the end of the reaction, the mix of phosphorylated (product) and non-phosphorylated (substrate) peptides are passed through the microfluidic system of the Caliper EZ Reader 2, under an applied potential difference. The presence of the phosphate group on the product peptide provides a difference in mass and charge between those of the substrate peptide, resulting in a separation of the substrate and product pools in the sample. As the pools pass a LEDS within the instrument, these pools are detected and resolved as separate peaks. The ratio between these peaks therefore reflects the activity of the chemical matter at that concentration in that well, under those conditions.
(§2) The reaction was stopped by the addition of 70 ul of Stop buffer (100 mM HEPES pH 7.5, 0.015% Brij 35, 35 mM EDTA and 0.2% of Coating Reagent 3 (Caliper Lifesciences)). The plate was then read on a Caliper EZReader 2 (protocol settings: −1.9 psi, upstream voltage −500, downstream voltage −3000, post sample sip 38 s).

[2] = target: T2, Kit D816V (HMC1.2 cells, Kit V560G and D816V) (Homo sapiens, UniProt P10721, D816V/V560G); assay: HMC1.2 autophosphorylation assay (AlphaLISA, phospho-Y719 c-Kit); format: cell-based; settings: Kit autophosphorylation at tyrosine 719, 90 minutes, read-out: Cellular Activity
T2 construct: endogenous in cells; host or cells: HMC1.2 cells
Outline: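 AlphaScreen signal comes from lysed HMC1.2 cells incubated with phospho-Y719 and total c-Kit antibodies (15 nM final), acceptor beads and then streptavidin donor beads, 2 h each at room temperature. Beforehand, cells deprived of serum overnight received compound for 90 min as a 10-point series, 25 uM–95.4 pM, 0.25% DMSO.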

[3] = target: T3, wild type Kit (Homo sapiens, UniProt P10721); assay: Kit wild type assay at Km (Caliper electrophoretic mobility shift); format: biochemical; settings: 400 uM ATP, 25 C, 90 minutes; read-out: WT KIT
T3 construct: purchased Carna Bioscience 08-156
Protocol: as §1
as §2, with “−700,” for “−500,”, “35” for “38”

[4] = target: T4, D816V Kit (Homo sapiens, UniProt P10721, D816V); assay: Kit D816V assay at Km (Caliper electrophoretic mobility shift); format: biochemical; settings: 15 uM ATP, 25 C, 90 minutes
T4 construct: purchased Carna Bioscience 08-156
Outline: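 Read-out is the ratio of phosphorylated to unphosphorylated fluorescent peptide, resolved by mobility shift on a Caliper EZ Reader 2.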

T3 sequence (P10721 26-976): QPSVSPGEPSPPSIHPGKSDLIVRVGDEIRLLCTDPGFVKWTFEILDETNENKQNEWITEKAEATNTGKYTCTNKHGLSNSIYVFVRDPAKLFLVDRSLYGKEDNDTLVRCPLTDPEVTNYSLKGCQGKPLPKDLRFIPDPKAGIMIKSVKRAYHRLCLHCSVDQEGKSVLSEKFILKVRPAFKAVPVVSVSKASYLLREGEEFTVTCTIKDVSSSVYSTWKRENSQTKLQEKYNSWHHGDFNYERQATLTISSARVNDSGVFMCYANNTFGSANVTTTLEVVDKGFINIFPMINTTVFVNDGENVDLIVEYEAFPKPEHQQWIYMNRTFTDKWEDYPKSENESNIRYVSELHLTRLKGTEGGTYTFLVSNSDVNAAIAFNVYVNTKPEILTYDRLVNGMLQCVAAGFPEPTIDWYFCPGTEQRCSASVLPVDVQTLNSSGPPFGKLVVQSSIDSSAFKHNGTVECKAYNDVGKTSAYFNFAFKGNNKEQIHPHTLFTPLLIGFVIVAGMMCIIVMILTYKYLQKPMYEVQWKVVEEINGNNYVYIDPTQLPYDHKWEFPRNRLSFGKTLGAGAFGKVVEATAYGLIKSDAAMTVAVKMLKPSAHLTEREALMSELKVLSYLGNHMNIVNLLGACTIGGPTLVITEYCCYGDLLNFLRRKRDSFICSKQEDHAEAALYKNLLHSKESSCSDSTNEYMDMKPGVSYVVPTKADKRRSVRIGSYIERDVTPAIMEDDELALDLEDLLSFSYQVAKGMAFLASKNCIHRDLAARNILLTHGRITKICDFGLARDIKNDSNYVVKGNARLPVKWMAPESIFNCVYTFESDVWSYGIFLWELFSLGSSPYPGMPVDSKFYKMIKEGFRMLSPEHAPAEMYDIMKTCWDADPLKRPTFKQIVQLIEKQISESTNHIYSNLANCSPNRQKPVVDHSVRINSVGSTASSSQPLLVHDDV
T2 sequence (P10721 26-976 V560G/D816V): as the sequence (P10721 26-976) above, with V535G, D791V counted along it
T4 sequence (P10721 26-976 D816V): as the sequence (P10721 26-976) above, with D791V counted along it
T1 sequence (P16234 24-1089 D842V): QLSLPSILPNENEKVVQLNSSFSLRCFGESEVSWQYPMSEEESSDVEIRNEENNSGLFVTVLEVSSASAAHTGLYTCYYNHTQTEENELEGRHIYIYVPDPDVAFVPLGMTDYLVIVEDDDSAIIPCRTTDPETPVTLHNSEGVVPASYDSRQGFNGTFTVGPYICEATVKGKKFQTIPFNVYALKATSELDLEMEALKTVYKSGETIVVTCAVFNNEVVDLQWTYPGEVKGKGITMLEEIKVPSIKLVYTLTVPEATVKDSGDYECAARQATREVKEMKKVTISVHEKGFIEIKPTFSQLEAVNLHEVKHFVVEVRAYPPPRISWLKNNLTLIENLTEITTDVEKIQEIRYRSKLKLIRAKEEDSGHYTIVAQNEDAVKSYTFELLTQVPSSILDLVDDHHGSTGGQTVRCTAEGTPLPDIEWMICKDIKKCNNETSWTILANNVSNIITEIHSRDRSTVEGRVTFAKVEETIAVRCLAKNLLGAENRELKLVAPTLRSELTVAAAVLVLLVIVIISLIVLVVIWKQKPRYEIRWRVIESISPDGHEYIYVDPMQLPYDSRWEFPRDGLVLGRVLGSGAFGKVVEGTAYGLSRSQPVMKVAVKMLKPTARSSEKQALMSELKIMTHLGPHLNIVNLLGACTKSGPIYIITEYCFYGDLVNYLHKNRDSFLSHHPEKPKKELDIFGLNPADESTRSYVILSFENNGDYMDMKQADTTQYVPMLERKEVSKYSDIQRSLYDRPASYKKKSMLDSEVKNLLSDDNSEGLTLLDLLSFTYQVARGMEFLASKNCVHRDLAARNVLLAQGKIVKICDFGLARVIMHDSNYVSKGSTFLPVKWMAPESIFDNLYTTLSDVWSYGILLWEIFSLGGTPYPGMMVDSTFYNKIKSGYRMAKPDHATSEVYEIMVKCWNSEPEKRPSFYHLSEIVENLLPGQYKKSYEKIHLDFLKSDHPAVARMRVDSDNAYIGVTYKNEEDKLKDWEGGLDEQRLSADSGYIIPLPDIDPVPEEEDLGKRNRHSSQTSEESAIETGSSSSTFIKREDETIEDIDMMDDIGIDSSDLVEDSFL

SMILES | IC50 [1] [nM] | IC50 [2] [nM] | IC50 [3] [nM] | IC50 [4] [nM]
c1ccc(Cc2cnc(N3CCN(c4ncnc(Nc5cccc(C6CCCNC6)c5)n4)CC3)nc2)cc1 (centres unmarked) [Compound 98] | < 1 | 10 to 100 | < 10 | < 1
c1ccc(Cc2cnc(N3CCN(c4ncnc(Nc5cn[nH]c5)n4)CC3)nc2)cc1 [Compound 4] | < 1 | 10 to 100 | < 10 | < 1
CNC(C)c1cccc(Nc2ncnc(N3CCN(c4ncc(Cc5ccccc5)cn4)CC3)n2)c1 (centres unmarked) [Compound 48] | < 1 | 10 to 100 | < 10 | < 1
c1ccc(Cc2cnc(N3CCN(c4ncnc(Nc5cnc6c(c5)CNCC6)n4)CC3)nc2)cc1 [Compound 43] | 1.01 to 10 | 10 to 100 | 11 to 100 | < 1
CC(C)(c1ccccc1)c1cnc(N2CCN(c3ncnc(Nc4ccc(N5CCC[C@@H](O)C5)cc4)n3)CC2)nc1 [Compound 263] | 1.01 to 10 | 10 to 100 | – | 1.01 to 10
CC(=O)Nc1cccc(Nc2ncnc(N3CCN(c4ncc(Cc5ccccc5)cn4)CC3)n2)c1 [Compound 47] | < 1 | 10 to 100 | 11 to 100 | < 1
O[C@@H]1CCCN(c2ccc(Nc3ncnc(N4CCN(c5ncc(Cc6ccc(F)cc6)cn5)CC4)n3)cc2)C1 [Compound 239] | 1.01 to 10 | 10 to 100 | – | 1.01 to 10
CN1CCC(Cn2cc(Nc3ncnc(N4CCN(c5ncc(Cc6ccccc6)cn5)CC4)n3)cn2)CC1 [Compound 174] | < 1 | < 10 | < 10 | < 1
c1ccc(Cc2cnc(N3CCN(c4ncnc(Nc5ccc6c(c5)CNCC6)n4)CC3)nc2)nc1 [Compound 44] | 1.01 to 10 | 10 to 100 | 11 to 100 | 1.01 to 10
CC(C)(O)Cn1cc(Nc2ncnc(N3CCN(c4ncc(Sc5ccc(F)cc5)cn4)CC3)n2)cn1 [Compound 149] | 1.01 to 10 | 10 to 100 | – | < 1
Nc1cccc(Nc2ncnc(N3CCN(c4ncc(Cc5ccccc5)cn4)CC3)n2)c1 [Compound 12] | < 1 | < 10 | < 10 | < 1
c1ccc(Cc2cnc(N3CCN(c4ncnc(Nc5cnn(CC6CCCNC6)c5)n4)CC3)nc2)cc1 (centres unmarked) [Compound 117] | < 1 | 10 to 100 | < 10 | < 1
C[C@H](O)Cn1cc(Nc2ncnc(N3CCN(c4ncc(Sc5ccc(F)cc5)cn4)CC3)n2)cn1 [Compound 101] | < 1 | < 10 | – | < 1
c1ccc(Cc2cnc(N3CCN(c4ncnc(Nc5cnn(C[C@H]6CNCCO6)c5)n4)CC3)nc2)cc1 [Compound 123] | < 1 | < 10 | < 10 | < 1
OC1CCC(NCc2cccc(Nc3ncnc(N4CCN(c5ncc(Cc6ccccc6)cn5)CC4)n3)c2)C1 (centres unmarked) [Compound 214] | < 1 | 10 to 100 | 11 to 100 | < 1
Oc1nc(N2CCN(c3ncnc(Nc4ccc5c(c4)CNCC5)n3)CC2)ncc1Cc1ccccc1 [Compound 75] | < 1 | 10 to 100 | < 10 | < 1
Cn1cc(Nc2ncnc(N3CCN(c4ncc(Cc5ccccc5)cn4)CC3)n2)cn1 [Compound 10] | 1.01 to 10 | 100 to 1000 | 11 to 100 | < 1
OCc1cccc(Nc2ncnc(N3CCN(c4ncc(Cc5ccccc5)cn4)CC3)n2)c1 [Compound 15] | < 1 | 10 to 100 | 11 to 100 | < 1
CN(C)CCCn1cc(Nc2ncnc(N3CCN(c4ncc(Cc5ccccc5)cn4)CC3)n2)cn1 [Compound 88] | < 1 | 10 to 100 | 11 to 100 | < 1
c1ccc(Cc2cnc(N3CCN(c4ncnc(Nc5cccc(O[C@@H]6CCNC6)c5)n4)CC3)nc2)cc1 [Compound 106] | 1.01 to 10 | – | – | –

SMILES | IC50 [1] [nM] | IC50 [2] [nM] | IC50 [3] [nM] | IC50 [4] [nM]
O=C1CCc2ccc(Nc3ncnc(N4CCN(c5ncc(Cc6ccccc6)cn5)CC4)n3)cc2N1 [Compound 68] | < 1 | 10 to 100 | 11 to 100 | 1.01 to 10
c1ccc(Oc2cnc(N3CCN(c4ncnc(Nc5ccc6c(c5)CNCC6)n4)CC3)nc2)cc1 [Compound 46] | 1.01 to 10 | 10 to 100 | < 10 | < 1
CN(C)[C@@H]1CCN(Cc2cccc(Nc3ncnc(N4CCN(c5ncc(Cc6ccccc6)cn5)CC4)n3)c2)C1 [Compound 261] | < 1 | 10 to 100 | < 10 | < 1
CN1CCN(Cc2cccc(Nc3ncnc(N4CCN(c5ncc(Cc6ccccc6)cn5)CC4)n3)c2)CC1 [Compound 211] | 1.01 to 10 | 10 to 100 | – | < 1
c1ccc(Cc2cnc(N3CCN(c4ncnc(Nc5cnn(CC6CCNC6)c5)n4)CC3)nc2)cc1 (centres unmarked) [Compound 83] | < 1 | 10 to 100 | < 10 | < 1
CN1CCc2ccc(Nc3ncnc(N4CCN(c5ncc(Cc6ccccc6)cn5)CC4)n3)cc2C1 [Compound 69] | < 1 | < 10 | < 10 | < 1
OC[C@H](O)c1ccc(Nc2ncnc(N3CCN(c4ncc(Cc5ccccc5)cn4)CC3)n2)cc1 (single isomer, unassigned) [Compound 57] | 1.01 to 10 | 10 to 100 | – | < 1
c1ccc(Cc2cnc(N3CCN(c4ncnc(Nc5ccc(N6CCNCC6)cc5)n4)CC3)nc2)cc1 [Compound 102] | < 1 | 10 to 100 | < 10 | < 1
O[C@H]1CCCN(c2ccc(Nc3ncnc(N4CCN(c5ncc(Cc6ccccc6)cn5)CC4)n3)cc2)C1 [Compound 166] | 1.01 to 10 | < 10 | 11 to 100 | < 1
CNCCCn1cc(Nc2ncnc(N3CCN(c4ncc(Cc5ccccc5)cn4)CC3)n2)cn1 [Compound 61] | < 1 | 10 to 100 | < 10 | < 1
CN1CCN(c2cccc(Nc3ncnc(N4CCN(c5ncc(Cc6ccccc6)cn5)CC4)n3)c2)CC1 [Compound 157] | 1.01 to 10 | 100 to 1000 | < 10 | < 1
CC(C)N1CCc2ccc(Nc3ncnc(N4CCN(c5ncc(Cc6ccccc6)cn5)CC4)n3)cc2C1 [Compound 148] | < 1 | 10 to 100 | < 10 | < 1
CCNc1cccc(Nc2ncnc(N3CCN(c4ncc(Cc5ccccc5)cn4)CC3)n2)c1 [Compound 25] | < 1 | 10 to 100 | 11 to 100 | < 1
c1ccc(Cc2cnc(N3CCN(c4ncnc(Nc5cnn(CC6CCNCC6)c5)n4)CC3)nc2)cc1 [Compound 116] | < 1 | 10 to 100 | < 10 | < 1
Nc1nc(N2CCN(c3ncnc(Nc4ccc5c(c4)CNCC5)n3)CC2)ncc1Cc1ccccc1 [Compound 73] | < 1 | < 10 | < 10 | < 1
OC[C@@H](O)c1ccc(Nc2ncnc(N3CCN(c4ncc(Cc5ccccc5)cn4)CC3)n2)cc1 (single isomer, unassigned) [Compound 56] | < 1 | 10 to 100 | – | < 1
Cc1c(Nc2ncnc(N3CCN(c4ncc(Cc5ccc(F)cc5)cn4)CC3)n2)cnn1C[C@@H]1CNCCO1 [Compound 271] | 1.01 to 10 | < 10 | – | 1.01 to 10
Fc1ccc(Sc2cnc(N3CCN(c4ncnc(Nc5cnn(C[C@@H]6CNCCO6)c5)n4)CC3)nc2)cc1 [Compound 256] | 1.01 to 10 | 10 to 100 | – | < 1
C[C@]1(O)CCCN(c2ccc(Nc3ncnc(N4CCN(c5ncc(Cc6ccccc6)cn5)CC4)n3)cc2)C1 (single isomer, unassigned) [Compound 226] | 1.01 to 10 | 10 to 100 | – | 1.01 to 10
